Source: US7611863B2, “Selective staining of biomembranes using voltage-sensitive dyes” (Max-Planck-Gesellschaft zur Foerderung der Wissenschaften …, priority 2004, dated 2009)

Columns and labels:
[1] = test system: Madine Darby Canine Kidney (MDCK) cells; assay: Enzyme induced staining of transiently transfected MDCK cells; format: cell-based; details: 200 nM
Experimental: FIG. 19. Genetically Targeted Staining of MDCK cells with Di-10P-ASPBS and Di-12P-ASPBS. (A) Cells were cotransfected with the membrane-bound phosphatase construct termed ArtPlasMA AP and H2B-GFP, a nucleus-localized transfection marker. Brightfield image and fluorescence images before (−1 sec) and after addition of 200 nM Di-10P-ASPBS. (B) Analogous to row A, but using 200 nM Di-12P-ASPBS. (C) Control experiment. Cells were transfected only with H2B-GFP and incubated with 200 nM Di-12P-ASPBS. Brightfield image and fluorescence images before (−1 sec) and after addition of dye (8 min). (D) Control experiment. Cells were cotransfected with the membrane-bound phosphatase construct termed ArtPlasMA AP and H2B-GFP and incubated with the dye Di-10A-ASPBS. Brightfield image and fluorescence image before (−1 sec) and after addition of dye (20 sec).
Two control experiments were performed: In the first control, cells were transfected only with the transfection marker H2B-GFP. […] In addition, no difference in staining intensity between transfected and untransfected cells can be discerned (FIG. 19C). In the second control experiment, cells were cotransfected with the phosphatase construct and the transfection marker.

[2] = Dye-lipid binding by fluorescence lipid titration; format: physicochemical; details: for KA/KP ratio of binding constants of alcohol and phosphate: liposome suspensions
Experimental: Dye-lipid binding. The binding of the dyes to lipid membranes was determined by fluorescence lipid titration^21 with large unilamellar vesicles (LUVs) made of 1-palmitoyl-2-oleoyl-phosphatidylcholine (POPC). The purity of the lipids was checked by 2-dimensional TLC^22. The vesicles were made by extrusion^23 in Tris-NaCl buffer (20 mM Tris, 100 mM NaCl, pH 8.1), using an extrusion apparatus and polycarbonate filters with 100 nm pore size (both Avestin Europe, Mannheim, Germany). Vesicle size was determined by quasielastic light scattering using an argon ion laser (Spectra-Physics, Darmstadt, Germany), a photomultiplier (Brookhaven Instruments, Vienna, Austria) and a correlator (ALV-5000, Langen, Germany). The lipid concentration was determined by a chromogenic enzyme assay (Biomerieux, Marcy I'Etoile, France). The standard deviation of three concentration measurements for every vesicle preparation was always below 4%. Vesicles were stored under argon at 4° C. in 15 ml Falcon Centrifuge Tubes (BD Labware Europe, Le Pont de Claix, France) and used within three days.
To measure dye binding constants, we prepared 1 mM solutions of the dyes 1-3 by ultrasonication in Ethanol (1) or Tris-NaCl buffer (2,3). […] In the same buffer, suspensions of POPC vesicles with concentrations ranging from 100 nM to 10 mM were prepared by dilution of stock solutions. Dye and lipid were pre-thermostatted to 25° C. […] The fluorescence emission recorded at 600 nm with excitation at 488 nm was used for the evaluation of the partition coefficients.
Dye binding to lipid. When styryl hemicyanines bind to lipid bilayers, their quantum yield of fluorescence is enhanced. […] We take advantage of that effect to examine the binding of Di-4-ASPP phosphate and Di-4-ASPP alcohol to lipid membranes by fluorescence titration^21. For comparison Di-4-ASPBS was also included in the investigation.
Dispersions of large lipid vesicles (Ø≈100 nm) were made from palmitoyl-oleoyl-phosphatidylcholine (POPC) with lipid concentrations ranging over five orders of magnitude. […] The fluorescence intensity was enhanced with increasing concentration of lipid for all three dyes. The enhancement was shifted to higher lipid concentrations in the order Di-4-ASPP alcohol, Di-4-ASPBS and Di-4-ASPP phosphate.
Binding. The dyes Di-10-phosphato-ASPBS (Di-10P-ASPBS) and Di-12-phosphato-ASPBS (Di-12P-ASPBS) as well as the corresponding products after enzymatic hydrolysis Di-10-hydroxy-ASPBS (Di-10A-ASPBS) and Di-12-hydroxy-ASPBS (Di-12A-ASPBS) were synthesized by organic chemical methods. Their binding to lipid membranes was tested by fluorescence lipid titration (cf. page 15, section dye binding to lipid). The binding constants amounted to 27 M^−1 (Di-10P-ASPBS), 250,000 M^−1 (Di-10A-ASPBS), 2100 M^−1 (Di-12P-ASPBS) and 3,000,000 M^−1 (Di-12P-ASPBS) (FIGS. 14 and 15 (center and right hand side)). The difference in binding constants between dye alcohol and dye phosphates (or dye precursors) therefore amounted to a factor of 10,000 for the pair Di-10P-ASPBS/Di-10A-ASPBS and to a factor of 1000 for the pair Di-12P-ASPBS/Di-12A-ASPBS. The binding curve for the more lipophilic pair Di-12P-ASPBS/Di-12A-ASPBS is shifted to […] lipid concentrations.

[3] = Enzyme induced staining of liposomes; format: biochemical; details: 100 μM lipid; 0.43 μM and 4.31 μM substrate
Experimental: Enzyme induced staining of liposomes. We studied enzymatic hydrolysis of Di-4-ASPP phosphate in the presence of large unilamellar POPC vesicles (LUVs) to observe enzyme induced staining. Tris-NaCl Buffer was used for the preparation of all solutions. To 550 μl of a 200 μM solution of POPC vesicles in a cuvette, an equal volume of Di-4-ASPP phosphate was added to yield concentrations between 0.1 μM and 10.7 μM. 10 μl of PLAP (18.6 DEA Units/ml) were added and the suspension was mixed by pipetting. The cuvette was held at 25° C. Fluorescence (excitation 488 nm, emission 600 nm) was recorded before and after addition of the enzyme with a resolution of 1 sec. Initial velocities were determined from the slope of the first 10 to 20 seconds of the fluorescence traces.
Enzyme Induced staining of liposomes. Now, we combined the two previous experiments. The dye phosphate was hydrolysed by phosphatase in the presence of lipid vesicles. The reaction was observed by the enhancement of fluorescence due to the enhanced binding of the dye alcohol to the lipid. The fluorescence intensity of a vesicle suspension (100 μM lipid) was recorded before and after the addition of the phosphatase with 0.43 μM and 4.31 μM Di-4-ASPP phosphate. […] This corresponds to the ratio of the fluorescence lipid titration data of alcohol and phosphate at 100 μM lipid.

Row | Molecule | staining of directly adjacent cells ([1]; after 10 minutes incubation) | localization of staining over several minutes ([1]; cells cotransfected with ArtPlasMA AP and H2B-GFP) | staining of control cells without phosphatase ([1]; transfected only with H2B-GFP) | difference in binding constants between dye alcohol and dye phosphate (precursor) ([2]; pair precursor/product dye) | enhancement of fluorescence intensity of vesicle suspension after addition of phosphatase [3] | average binding constant K to lipid membrane ([2]; POPC vesicles, Tris-NaCl buffer pH 8.1, 25° C., dye 0.5 μM) | KA/KP ratio of binding constants of alcohol and phosphate ([2]; dye concentration 9.8 μM) | KA/KP ratio of binding constants of alcohol and phosphate ([2]; low dye concentrations) | increment of the binding energy Δ(ΔG) relative to the alcohol ([2]; −RT ln(K/KA))
1 | Di-12-phosphato-ASPBS [Di-12P-ASPBS] | Directly adjacent cells are weakly stained | Staining is well localized even after 10 minutes incubation | only weakly stained | 1000 factor | – | – | – | – | –
2 | CCCCN(CCCC)c1ccc(/C=C/c2cc[n+](CCCOP(=O)([O-])O)cc2)cc1 [Di-4-ASPP phosphate] | – | – | – | – | about sixfold | 1140 ± 140 M⁻¹ | ≈ 7 | ≈ 16 | 1.63 kcal/mol
